Results from patent US11272709B2, “Amidine substituted benzoyl derivatives useful as herbicides” (Syngenta Participations AG, priority 2018, dated 2022).

Assays:
Assay type in all cases: in vivo
Conditions in all cases: 500 g/h, evaluated after 13 days
Setaria faberi (SETFA) [1] = assay: Post-emergence herbicidal glasshouse test, Setaria faberi (SETFA)
Method: (§1) Seeds of a variety of test species are sown in standard soil in pots (Lolium perenne (LOLPE), Amaranthus retoflexus (AMARE), Abutilon theophrasti (ABUTH), Setaria faberi (SETFA), Echinochloa crus-galli (ECHCG), Ipomoea hederacea (IPOHE)). After cultivation for one day (pre-emergence) or after 8 days cultivation (post-emergence) under controlled conditions in a glasshouse (at 24/16° C., day/night; 14 hours light; 65% humidity), the plants are sprayed with an aqueous spray solution derived from the formulation of the technical active ingredient in acetone/water (50:50) solution containing 0.5% Tween 20 (polyoxyethelyene sorbitan monolaurate, CAS RN 9005-64-5). Compounds are applied at 500 g/h unless otherwise indicated. The test plants are then grown in a glasshouse under controlled conditions in a glasshouse (at 24/16° C., day/night; 14 hours light; 65% humidity) and watered twice daily. After 13 days for pre and post-emergence, the test is evaluated for the percentage damage caused to the plant. The biological activities are shown in the following table on a five point scale (5=80-100%; 4=60-79%; 3=40-59%; 2=20-39%; 1=0-19%).

[2] = tested on: Ipomoea hederacea (IPOHE); assay: Pre-emergence herbicidal glasshouse test, Ipomoea hederacea (IPOHE)
Method: as §1

[3] = tested on: Echinochloa crus-galli (ECHCG); assay: Post-emergence herbicidal glasshouse test, Echinochloa crus-galli (ECHCG)
Method: as §1

[4] = tested on: Ipomoea hederacea (IPOHE); assay: Post-emergence herbicidal glasshouse test, Ipomoea hederacea (IPOHE)
Method: as §1

[5] = tested on: Abutilon theophrasti (ABUTH); assay: Post-emergence herbicidal glasshouse test, Abutilon theophrasti (ABUTH)
Method: as §1

[6] = tested on: Abutilon theophrasti (ABUTH); assay: Pre-emergence herbicidal glasshouse test, Abutilon theophrasti (ABUTH)
Method: as §1

[7] = tested on: Echinochloa crus-galli (ECHCG); assay: Pre-emergence herbicidal glasshouse test, Echinochloa crus-galli (ECHCG)
Method: as §1

[8] = tested on: Amaranthus retoflexus (AMARE); assay: Post-emergence herbicidal glasshouse test, Amaranthus retoflexus (AMARE)
Method: as §1

[9] = tested on: Amaranthus retoflexus (AMARE); assay: Pre-emergence herbicidal glasshouse test, Amaranthus retoflexus (AMARE)
Method: as §1

Setaria faberi (SETFA) [10] = assay: Pre-emergence herbicidal glasshouse test, Setaria faberi (SETFA)
Method: as §1

| SMILES | POST Application SETFA, percentage damage (five point scale) (Setaria faberi (SETFA) [1]) | PRE Application IPOHE, percentage damage (five point scale) [2] | POST Application ECHCG, percentage damage (five point scale) [3] | POST Application IPOHE, percentage damage (five point scale) [4] | POST Application ABUTH, percentage damage (five point scale) [5] | PRE Application ABUTH, percentage damage (five point scale) [6] | PRE Application ECHCG, percentage damage (five point scale) [7] | POST Application AMARE, percentage damage (five point scale) [8] | PRE Application AMARE, percentage damage (five point scale) [9] | PRE Application SETFA, percentage damage (five point scale) (Setaria faberi (SETFA) [10]) |
| --- | --- | --- | --- | --- | --- | --- | --- | --- | --- | --- |
| Cc1c(C(=O)Nc2nnnn2C)ccc(C(F)(F)F)c1N=CN(C)C [Compound 1.017] | 5 (5=80-100%) | 5 (5=80-100%) | 5 (5=80-100%) | 5 (5=80-100%) | 5 (5=80-100%) | 5 (5=80-100%) | 5 (5=80-100%) | 5 (5=80-100%) | 5 (5=80-100%) | 5 (5=80-100%) |
| Cc1c(C(=O)Nc2nnnn2C)ccc(S(C)(=O)=O)c1/N=C/N(C)C [Compound 1.025, 3-[(E)-dimethylaminomethyleneamino]-2-methyl-4-methylsulfonyl-N-(1-methyltetrazol-5-yl)benzamide] | 5 (5=80-100%) | 5 (5=80-100%) | 5 (5=80-100%) | 5 (5=80-100%) | 5 (5=80-100%) | 5 (5=80-100%) | 5 (5=80-100%) | 5 (5=80-100%) | 5 (5=80-100%) | 5 (5=80-100%) |
| CCN(C)C=Nc1c(S(C)(=O)=O)ccc(C(=O)Nc2nnnn2C)c1C [Compound 1.027] | 5 (5=80-100%) | 5 (5=80-100%) | 5 (5=80-100%) | 5 (5=80-100%) | 5 (5=80-100%) | 5 (5=80-100%) | 5 (5=80-100%) | 5 (5=80-100%) | 5 (5=80-100%) | 5 (5=80-100%) |
| CCN(C=Nc1c(S(C)(=O)=O)ccc(C(=O)Nc2nnnn2C)c1C)CC [Compound 1.031] | 5 (5=80-100%) | 4 (4=60-79%) | 5 (5=80-100%) | 5 (5=80-100%) | 5 (5=80-100%) | 5 (5=80-100%) | 5 (5=80-100%) | 5 (5=80-100%) | 5 (5=80-100%) | 5 (5=80-100%) |
| CN(C)C=Nc1c(Cl)ccc(C(=O)Nc2nnnn2C)c1Cl [Compound 1.041] | 5 (5=80-100%) | 5 (5=80-100%) | 5 (5=80-100%) | 5 (5=80-100%) | 5 (5=80-100%) | 5 (5=80-100%) | 5 (5=80-100%) | 5 (5=80-100%) | 5 (5=80-100%) | – |
| CCN(C=Nc1c(C(F)(F)F)ccc(C(=O)Nc2nnnn2C)c1Cl)CC [Compound 1.055] | 5 (5=80-100%) | 5 (5=80-100%) | 5 (5=80-100%) | 5 (5=80-100%) | 5 (5=80-100%) | 5 (5=80-100%) | 5 (5=80-100%) | 5 (5=80-100%) | 5 (5=80-100%) | 5 (5=80-100%) |
